Measurements from patent US10426815B2, “Prevention and treatment of itch with an MRGPR antagonist” (THE GENERAL HOSPITAL CORPORATION, priority 2015, dated 2019).
Entries after “also recorded” stand apart in the source; their conditions may differ. Each block holds one substance with its values, some of them ahead of it.

Experiments:
[1] = target: T1, PAR2 (Homo sapiens, UniProt P55085); assay: Calcium imaging of cells transfected with the GPCR (Table 1); type: cell-based
T1 construct: expressed in transfected cells; host or cells: HeLa cells by analogy with the other receptors
T1 sequence (P55085 26-397): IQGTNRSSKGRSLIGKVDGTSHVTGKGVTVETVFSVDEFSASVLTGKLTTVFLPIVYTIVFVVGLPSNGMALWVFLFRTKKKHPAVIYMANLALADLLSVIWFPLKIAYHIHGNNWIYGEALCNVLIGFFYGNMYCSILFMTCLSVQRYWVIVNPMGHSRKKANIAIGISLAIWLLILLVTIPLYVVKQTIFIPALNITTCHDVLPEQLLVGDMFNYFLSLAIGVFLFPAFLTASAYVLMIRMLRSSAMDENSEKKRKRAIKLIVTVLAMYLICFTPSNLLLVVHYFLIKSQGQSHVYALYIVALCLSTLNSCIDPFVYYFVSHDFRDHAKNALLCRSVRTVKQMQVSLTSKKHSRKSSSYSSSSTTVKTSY

[2] = target: T2, MrgX1 (human MRGPRX1) (Homo sapiens, UniProt Q96LB2); assay: as above; type: cell-based
T2 construct: expressed in transfected cells; host or cells: HeLa cells, pcDNA3.1(-)
Experimental: Human NK1 cDNA was obtained from LIFE Technologies, PCR cloned with Xho I-Hind III ends and cloned into pcDNA3.1(−). Mouse NK2 and NK3 expression-ready vectors were obtained from […] (Piscataway, N.J.). All other Mrgprs (human MRGPRX1, human MRGPRX2, human MRGPRX3, human MRGPRX4, mouse MrgprA2a, mouse MrgprA2b, mouse MrgprA3, mouse MrgprA4, mouse MrgprA9, mouse MrgprA10, mouse MrgprB4 and mouse MrgprB5) were cloned by PCR from genomic DNAs and inserted into pcDNA3.1 (−).
10 μg of expression vector (human MRGPRX2, mouse MrgprA1 or NK1) and 10 μl of LIPOFECTAMINE 2000 transfection reagent were diluted into 0.5 ml of DMEM and separately left at room temperature (RT) for 5 min. They were then mixed and incubated at RT for 20 minutes prior to being added to HeLa cells. HeLa cells were grown to confluence, trypsinized and 1×10^6 cells were pelleted in a 15 ml tube by centrifugation at 1000 rpm for 5 minutes. The DMEM-LIPOFECTAMINE 2000-DNA mixture (1 ml) was then added to the cell pellet, suspended and incubated at RT for 5 minutes. 2 ml of complete DMEM with 10% FBS without antibiotics were added to the tube, mixed by inverting the tube, plated into a 96-well glass bottom plate at 50,000 cells/well, and placed in a 37° C. CO2 incubator for 3 hours. HeLa cells transfected with salmon sperm DNA were plated as a control. The medium was changed after 3 hours and left in the incubator. 24 hours after transfection, the medium in the wells was removed and 100 μl of complete DMEM containing 2 μM of FURA-2 were added to each well and left at room temperature in the dark for 1 hr.
Calcium imaging was performed immediately after loading cells with Fura-2, using a ZEISS Axiovert 200M microscope platform equipped with a flipping filter wheel for ratiometric imaging. Axiovision software, version 4.6 was used for calcium image analysis of the cells excited at 340 nm and 380 nm. Agonists were added at 15 seconds after the start of the excitation procedure. Antagonists were added five minutes before imaging with the agonists. Images were taken every 5 seconds, including at zero time, during a 90 second period or longer if required. The software later analyzed all images taken during each excitation period. Ratiometric changes were measured in 10-20 cells in each individual experiment. An average of the fluorescence of the cells in each image was calculated and plotted against time in seconds.

[3] = tested on: dorsal root ganglion neurons from NK1 mice; assay: DRG culture and calcium imaging, NK1 knockout mice; type: cell-based, mouse
Experimental: Cervical to lumbar dorsal root ganglia (DRG) from C57/B6 or NK1 mice (1 month old) were dissected and maintained in DMEM (GIBCO, Langley, Okla., USA), containing […] L-glutamine (FISHER […], Pittsburgh, Pa., USA), 10% heat inactivated fetal bovine serum (GIBCO, Langley, Okla., USA), 5000 U/ml penicillin and 5000 μg/ml streptomycin (FISHER […], Pittsburgh, Pa., USA). Enzymatic digestion was carried out with 1 mg collagenase in 1 ml dispase (ROCHE Applied Sciences, IN, USA), at 37° C. for 70 min. The collagenase/dispase solution was removed, and DRGs were washed and suspended in DMEM containing 125 U DNAse (SIGMA, St Louis, USA) within which the ganglia were mechanically triturated using fire-polished glass pipettes. […] Cells were evaluated using a NIKON Eclipse Ti inverted microscope equipped with an Exi Aqua CCD camera (QIMAGING, British Columbia, Canada). Ca^2+ flux fluorescence was measured as an […] ratio at 340 nm and 380 nm (F340/380) (Lambda DG4, Sutter Instruments, Novato, Calif., US). The 340/380 ratiometric images were analyzed using NIKON Elements AR Software (NIKON, Melville, N.Y. USA). […]

T2 sequence (Q96LB2 whole entry): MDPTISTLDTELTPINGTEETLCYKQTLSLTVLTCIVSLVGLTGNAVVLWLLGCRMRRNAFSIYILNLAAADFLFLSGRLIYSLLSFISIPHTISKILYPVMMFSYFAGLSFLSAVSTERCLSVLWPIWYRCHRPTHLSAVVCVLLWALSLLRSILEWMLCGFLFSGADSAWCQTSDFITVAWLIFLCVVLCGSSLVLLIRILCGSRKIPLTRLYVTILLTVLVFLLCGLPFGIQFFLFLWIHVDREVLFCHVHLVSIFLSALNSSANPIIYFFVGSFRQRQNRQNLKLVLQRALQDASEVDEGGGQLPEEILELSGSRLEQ

activation of PAR2 by the substance (in words) [1]: activates
Substance: SLIGRL: tethered hexapeptide ligand of mouse PAR2 (SEQ ID NO: 7)

activation of human MRGPRX1 by the substance (in words) ([2]; SP 10 μM (FIG. 9), chloroquine 100 μM (FIG. 7c)): does not activate
Substance: SP: inflammatory undecapeptide neuropeptide of the tachykinin family, synthesized by GenScript
activation of NK1 knockout DRG neurons by SP ([3]; cultured DRGs, calcium imaging): activated

inhibition of PAR2 activation by 48/80 [1]: antagonizes
inhibition of PAR2 activation by SLIGRL [1]: not
Substance: Boc-Gln-D-Trp(Formyl)-Phe benzyl ester trifluoroacetate [QWF]
inhibition of human MRGPRX1 activation by chloroquine (CQ) ([2]; FIG. 7c: CQ 100 μM, QWF 100 μM): does not affect; also recorded: does not inhibit
inhibition of SP-induced activation of NK1 knockout DRG neurons ([3]; QWF 1 μM): significantly diminished; also recorded: blocked; also recorded: inhibits; also recorded: significantly decreases
